Data published in patent publication US20040067923A1, “Use of biogenic estriol sulfamate prodrugs for treatment of autoimmune diseases” (priority 2002, published 2004).

Assays:
[1] = tested on: ovariectomised Wistar rats; conditions: 28 days
Procedure: Adult Wistar rats (6 months old) were ovariectomised and orally treated with estriol-3-O-sulfamate, reference compound and vehicle, respectively. Effects on bone mineral density after 28 days of treatment were determined.

[2] = tested on: ovariectomised Wistar rats
Procedure: Adult Wistar rats (6 months old) were ovariectomised and orally treated with estriol-3-O-sulfamate, reference compound and vehicle, respectively. Effects of treatment on uterine weight after 28 days of treatment were determined.

[3] = Head et al., 1998; cited from earlier work
[4] = 12 mg/day, Lindsay et al., 1979; cited from earlier work
[5] = Heithecker et al., 1991; cited from earlier work
[6] = ovariectomised Wistar rats, 28 days

SMILES	oral dose at which the loss in bone mineral density could be nearly restored [1]	systemic estrogen activity after oral application compared with estriol ([2]; conclusion based on Examples 1, 2 and 3)	oral dose to increase the uterine weight to basal level [2, 6]	potency relative to estriol administered orally, uterine weight test ([2]; ovariectomised Wistar rats, oral)	uterine weight dose relative to dose showing osteoprotective effects (tissue selectivity) ([2]; ovariectomised Wistar rats, oral, 28 days)	oral amount needed to achieve comparable serum levels of estriol as after intravaginal application [3]	osteoprotective effects after oral administration [4]	half-life [5]	bone sparing effect at doses used for oral application of estriol-3-sulfamate [1]
C[C@]12CC[C@@H]3c4ccc(OS(N)(=O)=O)cc4CC[C@H]3[C@@H]1C[C@@H](O)[C@@H]2O [estriol-3-sulfamate]	10 μg/animal/day	much higher systemic estrogen activity	100 μg/animal/day	about 3 fold	ten times more				
C[C@]12CC[C@@H]3c4ccc(O)cc4CC[C@H]3[C@@H]1C[C@@H](O)[C@@H]2O [estriol]			300 μg/animal/day			ten times more	not able to show the osteoprotective effects	1.5 to 5.3 h	no bone sparing effect
